The record followed here is patent EP4592286A1, “MACROCYCLIC NITROGEN-CONTAINING CROWN ETHER COMPOUND AND USE THEREOF AS PROTEIN KINASE INHIBITOR” (Artivila Biopharma, priority 2022, dated 2024).

The target of one experiment is LRRK2 (Homo sapiens, UniProt Q5S007). Briefly: experiment of inhibiting LRRK2 kinase activity (ADP-Glo method). The experiment is classed as biochemical. The following applies: Table 4. Here is the method:
The inhibitory effect of the compounds on the activity of LRRK2 kinase was detected by ADP-Glo method. The diluted solutions of the compounds were transfered to a 384-well plate (784075, Greiner), the plate was sealed and centrifuged at a speed of 1000 g for 1 minute. A kinase solution at 2-fold final concentration was prepared with 1×kinase buffer, 2.5 µl of the kinase solution with 2-fold final concentration was added to the wells, the plate was centrifuged at 1000 g for 30 seconds, and left at room temperature for 10 minutes. A mixed solution of ATP and kinase substrate at 2-fold final concentration was prepared with 1×kinase buffer, and 2.5 µL of mixed solution of ATP and substrate at 2-fold final concentration was added to start the reaction. The plate was centrifuged at 1000 g for 30 seconds, sealed and left at room temperature for 2 hours. 4 µL of ADP-Glo reagent was added and incubated at room temperature for 40 minutes; 8 µL kinase detection reagent was added and incubated at room temperature for another 40 minutes. The luminescence signal value was detected on Envision 2104 microplate reader. The conversion inhibition rate%=100-(compound signal value-positive control signal value)/(blank control signal value-positive control signal value)×100.
The IC50 was calculated with GraphPad 6.0 and the dose-responsive curve of the compounds was plotted as follows: y=Bottom+(Top-Bottom)/(1+10^((logic50-x)×hillslope)), where x was logarithm of inhibitor concentration; and y was % inhibition rate.

For experiment [1], the target named is T1, endogenous phosphorylated LRRK2 (S935) (Homo sapiens, UniProt Q5S007).
T1 construct: Detection of endogenous phosphorylated LRRK2 (S935) in A549 cells; endogenous in cells; host or cells: A549
T1 sequence (Q5S007 whole entry): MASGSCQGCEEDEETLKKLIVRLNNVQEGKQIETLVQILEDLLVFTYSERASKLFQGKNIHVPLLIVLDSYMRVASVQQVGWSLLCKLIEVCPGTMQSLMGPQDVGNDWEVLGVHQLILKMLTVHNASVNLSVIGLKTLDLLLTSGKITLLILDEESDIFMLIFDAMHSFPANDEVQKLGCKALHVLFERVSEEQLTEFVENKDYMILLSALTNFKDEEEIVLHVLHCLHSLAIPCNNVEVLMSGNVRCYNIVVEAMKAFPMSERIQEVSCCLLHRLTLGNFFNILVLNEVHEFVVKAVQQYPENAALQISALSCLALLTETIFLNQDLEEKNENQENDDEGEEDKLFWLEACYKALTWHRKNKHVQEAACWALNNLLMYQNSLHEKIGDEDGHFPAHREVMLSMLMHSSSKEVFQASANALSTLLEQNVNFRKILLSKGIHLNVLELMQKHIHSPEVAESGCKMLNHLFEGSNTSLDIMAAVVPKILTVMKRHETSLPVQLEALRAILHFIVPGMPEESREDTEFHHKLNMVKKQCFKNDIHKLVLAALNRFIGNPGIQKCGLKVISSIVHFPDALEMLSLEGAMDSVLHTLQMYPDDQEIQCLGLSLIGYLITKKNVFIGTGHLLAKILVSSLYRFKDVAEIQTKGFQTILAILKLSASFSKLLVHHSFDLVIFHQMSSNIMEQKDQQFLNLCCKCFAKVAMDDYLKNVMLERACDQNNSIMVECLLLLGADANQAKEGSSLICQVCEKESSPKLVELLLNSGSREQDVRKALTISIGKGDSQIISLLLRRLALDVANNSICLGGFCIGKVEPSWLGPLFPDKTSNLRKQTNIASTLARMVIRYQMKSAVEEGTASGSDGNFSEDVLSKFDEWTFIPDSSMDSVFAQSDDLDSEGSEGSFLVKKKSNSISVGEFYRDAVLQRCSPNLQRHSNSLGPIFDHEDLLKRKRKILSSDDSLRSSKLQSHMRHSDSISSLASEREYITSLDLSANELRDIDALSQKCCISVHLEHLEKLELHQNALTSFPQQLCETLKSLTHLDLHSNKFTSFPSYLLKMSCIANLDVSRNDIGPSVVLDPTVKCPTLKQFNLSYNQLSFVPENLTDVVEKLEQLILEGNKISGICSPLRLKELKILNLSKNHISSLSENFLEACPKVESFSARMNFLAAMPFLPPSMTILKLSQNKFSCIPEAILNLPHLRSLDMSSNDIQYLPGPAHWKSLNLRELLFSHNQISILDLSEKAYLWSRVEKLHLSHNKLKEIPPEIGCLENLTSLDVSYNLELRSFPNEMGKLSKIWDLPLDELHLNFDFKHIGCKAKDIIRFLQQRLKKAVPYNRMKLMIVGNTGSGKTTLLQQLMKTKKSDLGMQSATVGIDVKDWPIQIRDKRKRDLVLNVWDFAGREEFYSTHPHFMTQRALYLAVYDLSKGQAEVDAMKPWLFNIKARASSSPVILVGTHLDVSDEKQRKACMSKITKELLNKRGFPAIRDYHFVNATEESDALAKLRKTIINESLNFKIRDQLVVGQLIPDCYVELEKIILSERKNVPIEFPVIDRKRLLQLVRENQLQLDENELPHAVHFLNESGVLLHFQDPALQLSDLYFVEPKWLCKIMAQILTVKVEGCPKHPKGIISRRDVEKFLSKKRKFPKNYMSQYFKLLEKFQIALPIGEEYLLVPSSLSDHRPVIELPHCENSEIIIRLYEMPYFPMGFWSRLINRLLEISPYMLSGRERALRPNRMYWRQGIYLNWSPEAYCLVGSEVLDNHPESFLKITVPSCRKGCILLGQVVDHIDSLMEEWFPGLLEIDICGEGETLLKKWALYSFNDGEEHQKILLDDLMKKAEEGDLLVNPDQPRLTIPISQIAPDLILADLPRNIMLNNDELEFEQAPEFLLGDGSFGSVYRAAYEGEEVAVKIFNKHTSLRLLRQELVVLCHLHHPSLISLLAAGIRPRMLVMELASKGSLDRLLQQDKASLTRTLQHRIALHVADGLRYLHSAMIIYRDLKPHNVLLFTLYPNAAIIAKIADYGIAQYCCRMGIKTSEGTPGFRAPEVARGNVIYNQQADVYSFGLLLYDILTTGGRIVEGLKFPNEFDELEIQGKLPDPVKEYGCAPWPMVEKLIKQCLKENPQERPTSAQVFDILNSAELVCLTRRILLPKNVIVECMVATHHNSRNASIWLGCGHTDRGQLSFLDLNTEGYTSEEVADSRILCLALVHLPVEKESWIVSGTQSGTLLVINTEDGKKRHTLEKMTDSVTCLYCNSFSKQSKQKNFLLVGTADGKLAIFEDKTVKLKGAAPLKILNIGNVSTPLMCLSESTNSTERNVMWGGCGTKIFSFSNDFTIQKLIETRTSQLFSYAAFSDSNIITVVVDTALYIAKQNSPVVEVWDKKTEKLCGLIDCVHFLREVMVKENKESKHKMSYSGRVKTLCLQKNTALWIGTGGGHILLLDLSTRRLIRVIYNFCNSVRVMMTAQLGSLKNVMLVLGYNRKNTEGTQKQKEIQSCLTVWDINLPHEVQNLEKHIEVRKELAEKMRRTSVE
Briefly: detection of endogenous phosphorylated LRRK2 (S935) in A549 cells (Western blot). The experiment is classed as cell-based. The following applies: 15 hours; for inhibition at 2 µM / inhibition at 1 µM: LRRK2 (S935) activity in A549 cells, read-out: Inhibition rate; for IC50: A549 cells, Table 11, read-out: IC50 of inhibitory activity on LRRK2 (S935) activity in A549 cells (column head: Inhibition rate). Here is the method: Detection of endogenous phosphorylated LRRK2 (S935) in A549 cells
A549 cells were resuspended in serum-free 1640 medium at a density of 1×10^6 cells/ml, and inoculated into a 6-well plate at 1 ml/well, and cultured at 37°C and 5% CO2 for 6-8 hours. 1 microliter of compound solution in DMSO or DMSO (volume ratio of 0.1%) was added, mixed evenly, and cultivated at 37°C and 5% CO2 for 15 hours. Cells were collected, 50 microliters of RIPA III lysis solution were added to each sample to lyse cells on ice for 15 minutes, centrifuged at 4°C and 13000 rpm for 30 minutes, the supernatant was collected, the protein concentration of cell lysis solution was measured by BCA, and the protein concentrations of all samples were normalized. 5×sample loading buffer were added and kept at 95°C for 10 minutes. The content of phosphorylated S935 of endogenous LRRK2 was detected by Western blot, using antibody against phosphorylated LRRK2 (S935) (Abcam#133450). The signal intensity of phosphorylated LRRK2 (S935) was counted by Image J, the signal of phosphorylated LRRK2 (S935) in a sample was normalized by β-actin, and the data was analyzed.

Chain of LRRK2 (Q5S007 whole entry): as above

In turn, `CN1CCOc2ccc(Nc3ncc(C(F)(F)F)c(NC[C@@H]4CCO4)n3)cc2OCC1` [Example 92, (S)-N^2-(4-methyl-3,4,5,6-tetrahydro-2H-benzo[b][1,4,7]dioxazolin-9-yl)-N^4-(oxetan-2-ylmethyl)-5-(trifluoromethyl)pyrimidin-2,4-diamine] displayed an IC50 against LRRK2 of less than 0.1 µM. Further, in experiment [1], the inhibition at 2 µM lay within 40 to 79%.

On to `CN1CCOc2ccc(Nc3ncc(C(F)(F)F)c(NCC4(C#N)CC4)n3)cc2OCC1` [Example 96, 1-(((2-((4-methyl-3,4,5,6-tetrahydro-2H-benzo[b][1,4,7]dioxazolin-9-yl)amino)-5-(trifluoromethyl)pyrimidin-4-yl)amino)methyl)cyclopropan-1-carbonitrile], for which, in experiment [1], the inhibition at 1 µM is greater than 0%.

In the case of `CN1CCOCCOc2ccc(Nc3ncc(C(F)(F)F)c(NCCS(C)(=O)=O)n3)cc2OCC1` [Example 89, N^2-(7-methyl-2,3,6,7,8,9-hexahydro-5H-benzo[b][1,4,7]trioxa[10]azacyclododecyl-12-yl)-N^4-(2-(methylsulfonyl)ethyl)-5-(trifluoromethyl)pyrimidin-2,4-diamine], the inhibition at 2 µM in experiment [1] lay within 40 to 79%.

For the molecule `CN1CCOCCOc2ccc(Nc3ncc(C(F)(F)F)c(NC[C@@H]4CCO4)n3)cc2OCC1` [Example 88, (S)-N^2-(7-methyl-2,3,6,7,8,9-hexahydro-5H-benzo[b][1,4,7]trioxa[10]azacyclododecan-12-yl)-N^4-(oxetan-2-ylmethyl)-5-(trifluoromethyl)pyrimidin-2,4-diamine], the inhibition at 2 µM in experiment [1] was greater than 80%.

On to `CN1CCOc2ccc(Nc3ncc(C(F)(F)F)c(O[C@H]4CC[C@@](C)(O)CC4)n3)cc2OCC1` [Example 93, (1s,4s)-1-methyl-4-((2-((4-methyl-3,4,5,6-tetrahydro-2H-benzo[b][1,4,7]dioxazolin-9-yl)amino)-5-(trifluoromethyl)pyrimidin-4-yl)oxy)cyclohexan-1-ol], for which the IC50 against LRRK2 is less than 0.1 µM; in experiment [1] it was 0.1 to 0.5 µM.

With `COCc1ccccc1Nc1nc(Nc2ccc3c(c2)OCCN(C)CCO3)ncc1C(F)(F)F` [Example 94, N^4-(2-(methoxymethyl)phenyl)-N^2-(4-methyl-3,4,5,6-tetrahydro-2H-benzo[b][1,4,7]dioxazolin-9-yl)-5-(trifluoromethyl)pyrimidin-2,4-diamine], the inhibition at 1 µM in experiment [1] is greater than 0%.

Turning to `CN1CCOc2ccc(Nc3ncc(C(F)(F)F)c(NCC(C)(C)O)n3)cc2OCC1` [Example 8, 2-methyl-1-((2-((4-methyl-3,4,5,6-tetrahydro-2H-benzo[b][1,4,7]dioxazolin-9-yl)amino)-5-(trifluoromethyl)pyrimidin-4-yl)amino)propan-2-ol], the inhibition at 2 µM in experiment [1] is greater than 80%.

`CN1CCOc2ccc(Nc3ncc(C(F)(F)F)c(Nc4ccccc4)n3)cc2OCC1` [Example 91, N^2-(4-methyl-3,4,5,6-tetrahydro-2H-benzo[b][1,4,7]dioxazolin-9-yl)-N^4-phenyl-5-(trifluoromethyl)pyrimidin-2,4-diamine]: the half-maximal inhibitory concentration (IC50) (against LRRK2; in experiment [1]) was less than 0.1 µM in each case.

Take `Cc1cnc(Nc2ccc3c(c2)OCCN(C)CCO3)nc1O[C@H]1CC[C@@](C)(O)CC1` [Example 101, (1s,4s)-1-methyl-4-((5-methyl-2-((4-methyl-3,4,5,6-tetrahydro-2H-benzo[b][1,4,7]dioxazolin-9-yl)amino)pyrimidin-4-yl)oxy)cyclohexan-1-ol]: in experiment [1], the inhibition at 1 µM lay in the range of 40 to 79%.

Molecule `CN1CCOc2ccc(Nc3ncc(Cl)c(O[C@H]4CC[C@@](C)(O)CC4)n3)cc2OCC1` [Example 102, (1s,4s)-4-((5-chloro-2-((4-methyl-3,4,5,6-tetrahydro-2H-benzo[b][1,4,7]dioxazolin-9-yl)amino)pyrimidin-4-yl)oxy)-1-methylcyclohexan-1-ol] returned an IC50 at LRRK2 of less than 0.1 µM. For the same molecule, the inhibition at 1 µM in experiment [1] was greater than 0%.

At LRRK2, `CN1CCOc2ccc(Nc3ncc(F)c(O[C@H]4CC[C@@](C)(O)CC4)n3)cc2OCC1` [Example 100, (1s,4s)-4-((5-fluoro-2-((4-methyl-3,4,5,6-tetrahydro-2H-benzo[b][1,4,7]dioxazolin-9-yl)amino)pyrimidin-4-yl)oxy)-1-methylcyclohexan-1-ol] gave an IC50 of 0.1 to 0.5 µM. Also, the inhibition at 1 µM in experiment [1] lay within 40 to 79%.

Regarding `CN1CCOCCOc2ccc(Nc3nc(NCC(C)(C)O)c4cc[nH]c4n3)cc2OCC1` [Example 90, 2-methyl-1-((2-((7-methyl-2,3,6,7,8,9-hexahydro-5H-benzo[b][1,4,7]trioxa[10]azacyclododecan-12-yl)amino)-7H-pyrrolo[2,3-d]pyrimidin-4-yl)amino)propan-2-ol], in experiment [1], the inhibition at 2 µM is greater than 80%.

As to `COCc1ccccc1Nc1nc(Nc2ccc3c(c2)OCCN(C)CCOCCO3)ncc1C(F)(F)F` [Example 116, N^4-(2-(methoxymethyl)phenyl)-N^2-(7-methyl-2,3,6,7,8,9-hexahydro-5H-benzo[b][1,4,7]trioxa[10]azacyclododecan-12-yl)-5-(trifluoromethyl)pyrimidin-2,4-diamine], the IC50 against LRRK2 is less than 0.1 µM.

Consider `CN1CCOCCOc2ccc(Nc3ncc(F)c(O[C@H]4CC[C@@](C)(O)CC4)n3)cc2OCC1` [Example 103, (1s,4s)-4-((5-fluoro-2-((7-methyl-2,3,6,7,8,9-hexahydro-5H-benzo[b][1,4,7]trioxa[10]azacyclododecan-12-yl)amino)pyrimidin-4-yl)oxy)-1-methylcyclohexan-1-ol], for which the IC50 was 0.1 to 0.5 µM against LRRK2 and less than 0.1 µM in experiment [1].
